From PMC4718634, “Murine GPRC6A Mediates Cellular Responses to L-Amino Acids, but Not Osteocalcin Variants” (PLoS ONE, 2016)
Entries after “also recorded” stand apart in the source; their conditions may differ. Where two headings read alike, the source gives them in different places.

Legend:
[1] = target: T1, mGPRC6A (mouse GPRC6A) (Mus musculus, UniProt Q8K4Z6); assay: Inositol phosphate (IP-One HTRF) accumulation, FlpIn-TREx-HEK293-mGPRC6A cells; assay type: cell-based; conditions: NPS-2143 30 μM; Fig 1C
T1 sequence (Q8K4Z6 21-928): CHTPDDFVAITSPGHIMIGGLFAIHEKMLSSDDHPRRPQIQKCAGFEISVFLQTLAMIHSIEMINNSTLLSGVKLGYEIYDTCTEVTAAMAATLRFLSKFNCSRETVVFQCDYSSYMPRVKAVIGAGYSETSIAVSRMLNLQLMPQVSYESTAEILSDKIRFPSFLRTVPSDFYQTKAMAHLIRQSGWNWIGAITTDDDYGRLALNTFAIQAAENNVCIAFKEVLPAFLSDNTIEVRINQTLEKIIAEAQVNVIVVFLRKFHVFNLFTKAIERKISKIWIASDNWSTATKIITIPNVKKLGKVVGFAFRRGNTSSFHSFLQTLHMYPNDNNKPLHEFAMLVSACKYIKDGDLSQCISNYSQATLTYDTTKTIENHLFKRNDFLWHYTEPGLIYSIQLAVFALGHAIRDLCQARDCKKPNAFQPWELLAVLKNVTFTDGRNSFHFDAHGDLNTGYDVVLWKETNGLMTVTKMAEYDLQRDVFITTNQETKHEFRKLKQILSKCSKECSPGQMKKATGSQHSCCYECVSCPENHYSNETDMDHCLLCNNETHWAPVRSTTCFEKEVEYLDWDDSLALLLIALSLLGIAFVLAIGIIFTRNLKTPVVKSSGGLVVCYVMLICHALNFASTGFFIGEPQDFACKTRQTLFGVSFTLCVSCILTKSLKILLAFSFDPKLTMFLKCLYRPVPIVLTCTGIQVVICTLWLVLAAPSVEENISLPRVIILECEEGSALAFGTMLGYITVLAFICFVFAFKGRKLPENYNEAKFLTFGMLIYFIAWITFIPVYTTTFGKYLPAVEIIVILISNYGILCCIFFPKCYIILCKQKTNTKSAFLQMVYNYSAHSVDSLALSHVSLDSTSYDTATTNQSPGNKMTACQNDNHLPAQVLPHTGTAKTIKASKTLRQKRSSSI
Description: pcDNA 5/FRT/TO constructs were isogenically integrated into a FlpIn-TREx-HEK293 cell line (Life Technologies). FlpIn-TREx-HEK293-mGPRC6A and FlpIn-TREx-HEK293-hGPRC6A cells were then selected using 600 μg/ml hygromycin and 5 μg/ml blasticidin and grown in culture medium consisting of Dulbecco’s Modified Eagle Medium (DMEM), supplemented with 10% (v/v) foetal bovine serum (FBS) at 37°C in 5% CO2 and were sub-cultured in a 1:3 ratio every 3–4 days. Cells were cultured overnight in the presence of 1 μg/ml tetracycline to induce GPRC6A expression. […] 48 h after transfection, cells were selected using 3 μg/ml puromycin and grown as above.
Inositol phosphate (IPX) accumulation experiments were performed using the IP-One HTRF® assay kit (Cisbio, France). Briefly, 24h after transfection with G proteins (as above), 10^5 cells were seeded per well in PDL-coated, 96-well white plates and incubated overnight. Cells were then washed 2 x 2h at 37°C in HBSS buffer (pH 7.2) containing 20 mM HEPES, 3.5 mM NaHCO3, 1 mM CaCl2 and 0.1% (w/v) BSA. Test compounds were then prepared in the kit stimulation buffer containing 2 mM CaCl2; cells were then incubated with 70 μl of drugs for 30 min, after which 15 μl of both IP1-D2 and Ab-Cryp were added to the cells, followed by a 1 h incubation at RT. Plates were read using an Envision plate reader (Perkin Elmer), using an HTRF protocol. Results were calculated from the 665nm / 620nm HTRF ratio (Ratio = A665nm/A620nm x 10^4) and expressed as a percentage of the maximal response obtained.
(§1) Concentration-response data were analysed using a three or four parameter logistic function (Motulsky & Christopoulos, 2004) to generate estimates of agonist potency (LogEC50). Data for all HEK293 assays represent the mean ± SEM of at least three independent experiments (except cell impedance, n = 2). For GLP-1 release, the data represent mean ± SEM of three to five independent experiments (except for OCN, wash; n = 2). For insulin release assays, data represent the mean ± SEM of three independent experiments (except for islet studies; n = 2). Insulin release data were normalised to the response to vehicle in either low or high [glucose]. Statistical analysis for GLP-1 release data were performed by one-way ANOVA, followed by Sidak’s multiple comparisons test (treating wash / no wash datasets separately). Statistical analyses for insulin release data were performed by two-way ANOVA (with [glucose] and drug treatment as group variables), followed by Sidak’s multiple comparisons test. Where only high [glucose] groups were evaluated, statistical analysis was by one-way ANOVA followed by Sidak’s multiple comparisons test.

[2] = system: MIN6 cells; assay: Insulin release from MIN6 cells; assay type: cell-based, murine; conditions: NPS-2143 10 μM; ^^P < 0.01 vs L-ornithine alone; Fig 6B
Description: MIN6 or βTC-6 cells were seeded in 24-well plates at 170,000 cells per well in DMEM (containing 4.5g/L glucose, 10 mM HEPES, 100 U/ml penicillin, 100 μg/ml streptomycin and 15% de-complemented FBS) and incubated at 37°C / 5% CO2 for 72 h. Cells were then washed with 500 μl PBS and incubated in 500 μl deprivation media (DMEM with zero glucose, 10 mM HEPES, 1 mM Na-pyruvate, 100 U/ml penicillin, 100 μg/ml streptomycin, 15% de-complemented FBS) for 2 h at 37°C. Media was aspirated and after washing with 500 μl PBS, cells were treated with 250 μl of Krebs buffer (250 mM NaCl, 5.9 mM KCl, 1.2 mM MgCl2, 1.3 mM CaCl2, 25 mM HEPES, 0.1% BSA (w/v), and 2 mM or 16.7 mM glucose; pH 7.4) in the presence or absence of test compound. After incubation for 2 h at 37°C, the assay was terminated by placing the plates on ice and supernatants were transferred to a 96-well plate in preparation for insulin ELISA (Alpco) following manufacturer’s instructions. The cell monolayer was washed twice with 500 μl of PBS and then lysed using 250 μl of 1 N NaOH prior to protein measurement by the method of Bradford (1976).
as §1

[3] = system: GLUTag cells; assay: GLP-1 release from GLUTag cells; assay type: cell-based, murine; conditions: NPS-2143 10 μM, 30 min pre-treatment; ^P < 0.05 vs L-ornithine alone; Fig 6A
Description: Intestinal L-cell model GLUTag cells were seeded in 24-well plates coated with Matrigel and incubated for 6 days in DMEM with 10% FBS, 100 U/ml penicillin, 100 μg/ml streptomycin at 37°C in 5% CO2 and grown for 4–5 days. Where indicated, cells were washed (1 or 2 x 1h) with Krebs-HEPES buffer (20 mM HEPES, 118 mM NaCl, 4.7 mM KCl, 1.2 mM MgSO4, 5 mM NaHCO3, 1.2 mM KH2PO4, 2.5 mM CaCl2, 5.5 mM glucose, 0.2% BSA (w/v), pH 7.2) containing vildagliptin (300 μM) prior to addition of test compounds in the same buffer. After 2 h incubation at 37°C in 5% CO2, the supernatant was recovered and centrifuged at 500 rpm for 5 min. Where used, NPS-2143 pre-treatment was for 30 min.
GLP-1 content in the cell supernatant was measured by ELISA (EGLP-35K, Millipore), according to manufacturer’s instructions after overnight incubation of 15 μl supernatant in 100 μl Krebs-HEPES buffer at 4°C. After 5 x washes, 200 μl of detection conjugate was added and incubated for 2 h at RT. After 3 x washes the reaction was developed with 200 μl of diluted substrate (1:200) for 20 min and terminated by addition of 50 μl stop solution. After 5 min, fluorescence was then measured using 355 nm excitation and 460 nm emission, transforming the obtained signal into pmol GLP-1/well/ml and corrected for GLUTag cell protein content as determined using the method of Bradford (1976).
as §1

[4] = system: GPRC6A; conditions: bind in the 7TM domain; ref [3], [4]; cited from earlier work
Description: GPRC6A is a class C G protein-coupled receptor (GPCR) that has been cloned from human, mouse and rat. The receptor was initially deorphanised by fusion of its large N-terminal domain to the heptahelical and C-terminal region of the related goldfish 5.24 receptor [1]. […] These ligands are thought to bind in the N-terminal domain of the receptor [2] in a manner analogous to the binding of L-glutamate to metabotropic glutamate receptors. Small molecules, ...

[5] = system: mC6A; conditions: cited from earlier work
Description: (§2) Supplement pone.0146846.s004.docx, table 1 | column: Functional assay

[6] = system: PC-3 cells; conditions: endogenous; ref [18] (supplement list); cited from earlier work
Description: as §2

[7] = system: GLUTag cells; conditions: endogenous; ref [17] (supplement list); cited from earlier work
Description: as §2

Structure (SMILES): CC(C)(Cc1ccc2ccccc2c1)NC[C@@H](O)COc1cccc(Cl)c1C#N [NPS-2143]
- inhibition of L-ornithine-stimulated inositol phosphate accumulation [1]: inositol phosphate accumulation in response to L-ornithine was sensitive to application of the GPRC6A antagonist, NPS-2143; also recorded: can be inhibited with the antagonist
- reversal of L-ornithine-stimulated insulin secretion [2]: fully reversed
- reversal of L-ornithine-stimulated GLP-1 release [3]: fully reversed; also recorded: significantly reversed; also recorded: NPS-2143-sensitive
- modulation of GPRC6A [4]: negative allosteric modulators

Structure (SMILES): C[C@]12CC[C@H]3[C@@H](CCC4=CC(=O)CC[C@@]43C)[C@@H]1CC[C@@H]2O [Testosterone]
- IP-One HTRF response ([5]; ref [13] (supplement list)): No response
- cAMP response ([5]; ref [13] (supplement list)): no response
- pERK response ([5]; ref [13] (supplement list)): No specific response
- cAMP response ([5]; ref [18] (supplement list)): cAMP – response to Testosterone, L-Arg pERK1/2 – response to Testosterone
- pERK1/2 response ([5]; ref [18] (supplement list)): cAMP – response to Testosterone, L-Arg pERK1/2 – response to Testosterone
- pERK1/2 response [6]: pERK1/2 – response to Testosterone, L-Arg

Structure (SMILES): C[C@@H](NCc1cc2ccccc2[nH]1)c1cccc2ccccc12 [calindol]
- modulation of GPRC6A [4]: negative allosteric modulators
- antagonism, Ca^2+i [7]: antagonist
- antagonism, GLP-1 secretion [7]: antagonist
